From patent US20250127937A1, “FAP INHIBITOR” (UNIVERSITÄT HEIDELBERG, priority 2018, published 2025)
Read-outs that look alike come from different tables or passages of the source. One block for each molecule: values may come before it.

Columns and labels:
[1] = molecular target: human CD26 (Homo sapiens (Human), UniProt P27487); test: Radioligand binding to CD26 expressing cells (HEK-CD26); conditions: 60 min incubation
Method: (§1) In vitro binding studies were performed using the human tumor cell lines BxPC3, Capan-2, MCF-7 (purchased from Sigma Aldrich Chemie GmbH) and SK-LMS-1 (purchased from ATCC) as well as stably transfected FAP-cell lines HT-1080-FAP, HEK-muFAP and the CD26 expressing cell line HEK-CD26 (obtained from Stefan Bauer, NCT Heidelberg). All cells were cultivated in Dulbecco's modified Eagle's medium (DMEM) containing 10% fetal calf serum at 37° C./5% carbon dioxide. For fluorescence internalization experiments, cells were seeded on coverslips and stained with FAPI-02-Atto488 and DAPI for cell nucleus staining. Images were acquired on a laser scanning confocal microscope using a 63× oil immersion objective.
(§2) For radioligand binding studies, cells were seeded in 6-well plates and cultivated for 48 h to a final confluence of approx. 80-90% (1.2-2 mio cells/well). The medium was replaced by 1 mL fresh medium without fetal calf serum. The radiolabeled compound was added to the cell culture and incubated for different time intervals ranging from 10 min to 24 h. Competition experiments were performed by simultaneous exposure to unlabeled (10^−5 M to 10^−9 M) and radiolabeled compound for 60 min. […] Radioactivity was determined in a γ-counter (Cobra II, Packard), normalized to 1 mio cells and calculated as percentage of the applied dose (% ID). […]

[2] = system: FAP-negative cancer cell lines; test: Radioligand binding to FAP-negative human cancer cell lines; type: cell-based; conditions: I-125 labeled, 60 min
Method: as §1, §2

[3] = molecular target: human FAP-α (Homo sapiens (Human), UniProt Q12884); test: Competitive binding of radiolabeled compound to HT-1080-FAP cells against unlabeled compound
human FAP-α, sequence (Q12884 whole entry): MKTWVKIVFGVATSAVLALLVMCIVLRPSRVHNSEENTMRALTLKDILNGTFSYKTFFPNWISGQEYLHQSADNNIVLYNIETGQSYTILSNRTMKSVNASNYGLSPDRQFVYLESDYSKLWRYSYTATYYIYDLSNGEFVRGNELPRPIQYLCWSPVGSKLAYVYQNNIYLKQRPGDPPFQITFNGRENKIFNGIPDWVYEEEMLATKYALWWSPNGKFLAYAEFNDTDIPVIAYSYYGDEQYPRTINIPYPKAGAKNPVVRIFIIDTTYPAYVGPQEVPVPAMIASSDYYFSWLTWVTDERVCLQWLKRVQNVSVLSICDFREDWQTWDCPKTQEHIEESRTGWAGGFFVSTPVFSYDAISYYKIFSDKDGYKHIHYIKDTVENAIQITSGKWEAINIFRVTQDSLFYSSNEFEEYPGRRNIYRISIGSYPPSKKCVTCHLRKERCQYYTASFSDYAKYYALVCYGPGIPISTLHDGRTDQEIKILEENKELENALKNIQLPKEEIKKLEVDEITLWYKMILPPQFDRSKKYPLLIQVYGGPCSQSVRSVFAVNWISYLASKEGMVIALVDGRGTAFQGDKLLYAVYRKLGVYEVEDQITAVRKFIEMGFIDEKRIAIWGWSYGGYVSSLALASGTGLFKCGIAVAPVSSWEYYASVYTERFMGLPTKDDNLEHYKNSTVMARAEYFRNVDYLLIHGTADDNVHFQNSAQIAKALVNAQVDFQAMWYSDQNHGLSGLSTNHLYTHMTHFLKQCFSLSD
Method: Competition experiments were performed by simultaneous exposure to unlabeled (10^−5 M to 10^−9M) and radiolabeled compound for 60 min. […] For internalization experiments, surface bound activity was removed by incubating the cells with 1 M glycine-HCl buffer for 10 min. The radioactivity was measured using a γ-counter, normalized to 1 mio cells and calculated as percentage of applied dose (% ID).
The medium was replaced by 1 mL fresh medium without fetal calf serum. […] Competition experiments were performed by simultaneous exposure to unlabeled (10^−5 M to 10^−9 M) and radiolabeled compound for 60 min. […] In all experiments, the cells were washed with 1 mL phosphate-buffered saline pH 7.4 for 2 times and subsequently lysed with 1.4 ml lysis buffer (0.3 M NaOH, 0.2% SDS). Radioactivity was determined in a γ-counter (Cobra II, Packard), normalized to 1 mio cells and calculated as percentage of the applied dose (% ID). Each experiment was performed 3 times, and 3 repetitions per independent experiment were acquired.

[4] = system: HT-1080-FAP cells; test: Radioligand binding and internalization in HT-1080-FAP cells; type: cell-based, human
Method: (§3) Radioligand binding studies were performed using HT-1080-FAP cells. The radiolabeled compound was added to the cell culture and incubated for different time intervals ranging from 10 min to 24 h. Competition experiments were performed by simultaneous exposure to unlabeled (10^−5 M to 10^−9M) and radiolabeled compound for 60 min. For efflux experiments, radioactive medium was removed after incubation for 60 min and replaced by non-radioactive medium for time intervals ranging from 1 to 24 h. For internalization experiments, surface bound activity was removed by incubating the cells with 1 M glycine-HCl buffer for 10 min. The radioactivity was measured using a γ-counter, normalized to 1 mio cells and calculated as percentage of applied dose (% ID).
(§4) For radioligand binding studies, cells were seeded in 6-well plates and cultivated for 48 h to a final confluence of approx. 80-90% (1.2-2 mio cells/well). The medium was replaced by 1 mL fresh medium without fetal calf serum. The radiolabeled compound was added to the cell culture and incubated for different time intervals ranging from 10 min to 24 h. Competition experiments were performed by simultaneous exposure to unlabeled (10^−5 M to 10^−9 M) and radiolabeled compound for 60 min. For efflux experiments, radioactive medium was removed after incubation for 60 min and replaced by non-radioactive medium for time intervals ranging from 1 to 24 h. In all experiments, the cells were washed with 1 mL phosphate-buffered saline pH 7.4 for 2 times and subsequently lysed with 1.4 ml lysis buffer (0.3 M NaOH, 0.2% SDS). Radioactivity was determined in a γ-counter (Cobra II, Packard), normalized to 1 mio cells and calculated as percentage of the applied dose (% ID). Each experiment was performed 3 times, and 3 repetitions per independent experiment were acquired.
For internalization experiments the cells were incubated with the radiolabeled compound for 60 min at 37° C. and 4° C. Cellular uptake was terminated by removing medium from the cells and washing 2 times with 1 mL PBS. Subsequently, cells were incubated with 1 mL of glycine-HCl (1 Min PBS, pH 2.2) for 10 min at room temperature to remove the surface bound activity. The cells were washed with 2 mL of ice-cold PBS and lysed with 1.4 mL of lysis buffer to determine the internalized fraction. For the cells incubated at 4° C., all washing and elution steps were carried out using ice-cold buffers. The radioactivity was measured using a γ-counter, normalized to 1 mio cells and calculated as percentage of applied dose (% ID).

[5] = system: HT-1080-FAP cells; test: Efflux experiments in HT-1080-FAP cells; type: cell-based, human; conditions: after 24 h in compound-free medium
Method: as §3, §4

[6] = system: HEK-CD26 cells; test: Fluorescence laser scanning microscopy of internalization, FAP-α negative cells; type: cell-based; conditions: fluorescently labeled, 1 to 2 hrs
Method: as §1
(§5) For internalization experiments HT-1080-FAP and HEK muFAP cells were seeded on uncoated coverslips in a 24-well plate and cultivated in culture medium containing 10% fetal calf serum to a final confluence of approx. 80-90%. The medium was removed and cells were washed with 0.5 mL PBS pH 7.4 for 2 times. FAPI-02-Atto488 (20 μM in DMEM) was added to the cells and incubated for 2 hrs at 37° C. Cells were washed with 0.5 mL PBS pH 7.4 for 3 times and fixed with paraformaldehyde (2% in PBS) for 15 min. The overgrown coverslips were placed on microscope slides using mounting medium containing DAPI for cell nucleus staining (Fluoroshield, Sigma-Aldrich). […]

[7] = system: HT-1080-FAP and HEK-muFAP cells; test: Fluorescence laser scanning microscopy of internalization, FAP-α expressing cells; type: cell-based; conditions: fluorescently labeled, 1 to 2 hrs
Method: as §1, §5

[8] = system: HT-1080-FAP tumor xenografts; test: Organ distribution ex vivo in HT-1080-FAP tumor bearing nude mice; design: species or system mouse; conditions: AlF-18-labeled, i.v.
[9] = system: HT-1080-FAP tumor xenografts; test: Small-animal imaging (PET, scintigraphy) in HT-1080-FAP tumor bearing mice; type: in vivo, mouse; conditions: F-18 labeled (nicotinamide or AlF-18 NOTA), up to 140 min after i.v.
Method: For in vivo experiments, 8 week old BALB/c nu/nu mice (Charles River) were subcutaneously inoculated into the right trunk with 5×10^6 with HT-1080-FAP, Capan-2 or SK-LMS-1 cells, respectively. When the size of the tumor reached approximately 1 cm^3, the radiolabeled compound was injected via the tail vein (˜10 MBq for small-animal PET imaging; ˜1 MBq for organ distribution). […] Images were reconstructed iteratively using the 3D-OSEM+MAP method and were converted to standardized uptake value (SUV) images. Quantification was done using a ROI technique and expressed as SUV mean. For organ distribution of Lu-177 labeled compound ([…]), the animals (n=3 for each time point) were sacrificed after indicated time points (from 30 min to 24 h). The distributed radioactivity was measured in all dissected organs and in blood using a γ-counter (Cobra Autogamma, Packard). The values are expressed as percentage of injected dose per gram of tissue (% ID/g).

[10] = I-125 labeled, 10 min incubation

human CD26, sequence (P27487 whole entry): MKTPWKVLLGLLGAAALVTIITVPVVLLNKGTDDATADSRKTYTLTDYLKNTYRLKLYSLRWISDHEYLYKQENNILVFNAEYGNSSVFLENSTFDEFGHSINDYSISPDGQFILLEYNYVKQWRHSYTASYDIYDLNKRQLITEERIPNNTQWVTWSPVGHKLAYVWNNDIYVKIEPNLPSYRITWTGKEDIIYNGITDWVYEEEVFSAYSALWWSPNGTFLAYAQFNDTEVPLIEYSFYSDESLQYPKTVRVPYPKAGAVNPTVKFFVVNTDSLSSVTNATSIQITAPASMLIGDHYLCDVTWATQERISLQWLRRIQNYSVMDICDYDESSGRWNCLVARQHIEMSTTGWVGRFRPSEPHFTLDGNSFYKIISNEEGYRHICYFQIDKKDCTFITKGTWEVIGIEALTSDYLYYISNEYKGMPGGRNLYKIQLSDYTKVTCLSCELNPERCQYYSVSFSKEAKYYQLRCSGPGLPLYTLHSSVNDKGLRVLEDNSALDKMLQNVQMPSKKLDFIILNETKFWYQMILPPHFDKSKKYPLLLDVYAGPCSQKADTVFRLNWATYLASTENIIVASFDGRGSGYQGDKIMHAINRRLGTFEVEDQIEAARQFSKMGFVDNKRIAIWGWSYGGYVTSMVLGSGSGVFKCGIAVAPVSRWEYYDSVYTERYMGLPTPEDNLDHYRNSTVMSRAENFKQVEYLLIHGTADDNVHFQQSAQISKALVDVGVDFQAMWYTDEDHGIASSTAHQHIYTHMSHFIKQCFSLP

binding to CD26 expressing cells (% ID) [1]: 0.05±0.01%
IC50 ([3]; radiolabeled FAPI-01 (I-125) / FAPI-02 (Lu-177), HT-1080-FAP cells, 60 min, read-out: IC50 human FAP-α): 39.4 nM
Structure (SMILES): N#C[C@@H]1CCCN1C(=O)CNC(=O)c1ccnc2cccc(I)c12 [FAPI-01]
binding to FAP-negative cancer cell lines [2]: no significant binding
activity remaining after 24 h of incubation relative to initial radioactivity ([4]; 24 h incubation, FAPI-01 compared to binding after 10 min): 5%
proportion of total bound fraction located intracellularly [4, 10]: 95%
total bound fraction [4, 10]: 19.70±0.28%
internalized proportion of total ([4]; I-125 labeled, 4 h incubation): 94%
total bound fraction ([4]; I-125 labeled, 4 h incubation): 17.00±0.40%
radioactivity ([4]; I-125 labeled, after 24 h, 4° C. (reduced deiodinase activity)): 26.66±1.59%
intracellular radioactivity ([4]; I-125 labeled, after 24 h, 37° C.): 3.25±0.29%
retained radioactivity (efflux) [5]: 1.1 % ID
retention of the originally accumulated radioactivity (efflux) [5]: 1.1%

Structure (SMILES): CN(CCCC(=O)N1CCN(CCCOc2ccc3nccc(C(=O)CCCN4CCC[C@H]4C#N)c3c2)CC1)Cc1ccccc1-c1c2ccc(=N)cc-2oc2c(S(=O)(=O)O)c(N)ccc12 [FAPI-02-Atto488]
uptake in FAP-α negative HEK-CD26 cells [6]: no uptake is detectable
internalization into FAP-α expressing cells [7]: completely internalized

tumor uptake in organ distribution [8]: high tumor uptake
IC50 ([3]; F-18-FAPI derivatives, table title says EC50, head says IC50, read-out: IC50): 2.9 nM
Structure (SMILES): N#C[C@@H]1CC(F)(F)CN1C(=O)CNC(=O)c1ccnc2ccc(OCCCN3CCN(C(=O)[C@H](CC(C(=O)O)C(=O)O)NC(=O)CN4CCN(CC(=O)O)CCN(CC(=O)O)CC4)CC3)cc12 [FAPI-75]
PET imaging findings [9]: high target specificity and fast clearance
